Experimental data as given in patent publication US5496546A, “Compositions and methods of application of reactive antiviral polyadenylic acid derivatives” (priority 1994, dated 1996).

Tests used:
HIV RT = molecular target: T1, HIV RT (Human immunodeficiency virus type 1 group M subtype B, UniProt P04585); experiment: Inhibition of viral reverse transcriptase in solution, HIV RT; format: biochemical
T1 construct: Reverse transcriptase samples from HIV (HIV RT)
Experimental: Reverse transcriptase samples from HIV (HIV RT) and from Moloney murine leukemia virus (MLV RT) and from avian myeloblastosis virus (AMV RT) were separately incubated with FDNP-poly[A] at 25° C. in a Tris-HCl buffer (0.1M, pH 8.2) containing 1 mM MgCl2 and 125 mM KCl and measured for RT activity. In each experiment, the selected enzyme was incubated for 10 minutes at 25° C. in an incubation mixture containing the potassium salt of the inhibitor at a given concentration. After ten minutes the incubated mixture was rapidly injected into an assay solution and further incubated for 10 min at 37° C., then precipitated with trichloroacetic acid, washed, and assayed for the radioactive polynucleotide formed by scintillation counting. The assay mixture contained 125 mM Tris-HCl (pH 8.2), 1 mM MgCl2, 125 mM KCl, 250 μM [^3 H]dTTP as the substrate and 23 nM Poly[A]-[dT],12 as the template.
Similar results were obtained with DNP-poly[A].

murine leukemia RT = murine leukemia RT (Moloney murine leukemia virus, UniProt P03355); details: cited from earlier work
HIV-2 (wild type) = molecular target: T2, HIV-2 (wild type) (Human immunodeficiency virus type 2 subtype A, UniProt P04584); experiment: Inhibition of different HIV RTs, poly C-[dG]12-18 template; format: biochemical; details: poly C-[dG]12-18, [^3 H]dGTP; approximate
T2 construct: with the RT from four different strains of the human virus: HIV-1 RT (wild type), HIV-2 (wild type)
T2 sequence (P04584 613-1171 limits assumed): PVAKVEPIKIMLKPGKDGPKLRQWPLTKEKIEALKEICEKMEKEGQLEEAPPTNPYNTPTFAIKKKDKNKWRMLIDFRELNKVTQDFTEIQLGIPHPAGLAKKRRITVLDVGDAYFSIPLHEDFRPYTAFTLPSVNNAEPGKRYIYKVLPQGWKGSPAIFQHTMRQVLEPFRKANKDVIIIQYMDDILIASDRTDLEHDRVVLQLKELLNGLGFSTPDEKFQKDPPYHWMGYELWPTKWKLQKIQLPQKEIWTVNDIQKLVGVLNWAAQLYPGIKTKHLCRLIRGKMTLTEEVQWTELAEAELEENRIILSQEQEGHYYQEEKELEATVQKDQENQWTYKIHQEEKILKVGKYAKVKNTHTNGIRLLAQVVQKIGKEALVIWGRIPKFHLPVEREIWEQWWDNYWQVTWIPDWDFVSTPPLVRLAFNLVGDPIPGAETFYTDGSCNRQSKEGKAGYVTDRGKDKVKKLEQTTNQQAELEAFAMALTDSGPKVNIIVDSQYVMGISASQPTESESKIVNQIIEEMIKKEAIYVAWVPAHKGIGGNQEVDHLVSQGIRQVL
T2 sequence (P04584 613-1052 partner limits assumed): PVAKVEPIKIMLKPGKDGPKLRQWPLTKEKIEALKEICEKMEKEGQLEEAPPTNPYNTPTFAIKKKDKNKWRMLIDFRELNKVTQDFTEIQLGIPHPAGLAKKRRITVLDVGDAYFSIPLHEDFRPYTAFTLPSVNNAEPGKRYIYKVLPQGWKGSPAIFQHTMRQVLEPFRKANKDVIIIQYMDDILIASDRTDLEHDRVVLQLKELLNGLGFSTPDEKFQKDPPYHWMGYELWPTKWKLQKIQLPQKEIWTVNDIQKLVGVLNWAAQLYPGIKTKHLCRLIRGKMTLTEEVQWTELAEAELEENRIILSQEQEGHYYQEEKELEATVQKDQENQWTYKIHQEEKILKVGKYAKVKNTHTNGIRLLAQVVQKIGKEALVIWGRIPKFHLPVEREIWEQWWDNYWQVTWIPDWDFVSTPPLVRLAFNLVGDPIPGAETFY

HIV-1 RT (wild type) = molecular target: T3, HIV-1 RT (wild type) (Human immunodeficiency virus type 1 group M subtype B, UniProt P04585); experiment: as above; format: biochemical; details: poly C-[dG]12-18, [^3 H]dGTP; approximate
T3 construct: HIV-1 RT (wild type)

[1] = molecular target: T4, HIV-1181c RT (Nevirapine-resistant mutant) (Human immunodeficiency virus type 1 group M subtype B, UniProt P04585, Y768C); experiment: as above; format: biochemical, HIV-1; details: poly C-[dG]12-18, [^3 H]dGTP; approximate
T4 construct: HIV-1181c RT (Nevirapine-resistant mutant)

[2] = molecular target: HIV-141,215 RT (AZT-resistant mutant, Thr 215→Tyr, Met 41→Leu) (Human immunodeficiency virus type 1 group M subtype B, UniProt P04585, M628L/T802Y); experiment: as above; format: biochemical, HIV-1; details: poly C-[dG]12-18, [^3 H]dGTP; approximate

Question: For `Nc1ncnc2c1ncn2[C@@H]1O[C@H](COP(=O)(O)OP(=O)(O)O)[C@@H](Oc2cc(F)c([N+](=O)[O-])cc2[N+](=O)[O-])[C@H]1O` [3'-O-(5-fluoro-2,4-dinitrophenyl) ADP ether], which “molar concentration required to inhibit HIV RT” value (HIV RT) is on record?
Answer: The value was “million-fold higher molar concentration”.

Question: For `Nc1ncnc2c1ncn2[C@@H]1O[C@H](COP(=O)(O)OP(=O)(O)OP(=O)(O)O)[C@@H](Oc2cc(F)c([N+](=O)[O-])cc2[N+](=O)[O-])[C@H]1O` [the corresponding ATP ether, 3'-O-(5-fluoro-2,4-dinitrophenyl) ATP ether], which “molar concentration required to inhibit HIV RT” value (HIV RT) is on record?
Answer: The value was “million-fold higher molar concentration”.

Question: Which IC50 (murine leukemia RT) does the source give for poly(2-fluoroadenylic acid) [(fl^2 A)n] here?
Answer: Its IC50 is 0.04 µg/mL.

Question: For polyadenylic acid (5') [Poly[A]], which “IC50 of the RT, HIV-2 (wild)” value (HIV-2 (wild type)) is on record?
Answer: Its value is “no inhibitory effect”.

Question: And the “IC50 of the RT, HIV-1 (wild)” value (HIV-1 RT (wild type))?
Answer: Its value is “no inhibitory effect”.

Question: What about the “IC50 of the RT, HIV-1181C” value [1] of the same compound?
Answer: Its value is “no inhibitory effect”.

Question: What about the “IC50 of the RT, HIV-141,215” value [2] of the same compound?
Answer: Its value is “no inhibitory effect”.
